Test results taken from ChEMBL document CHEMBL1201862, “PubChem BioAssay data set” (2004).
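Step 1: Grow cells in 96-well plates. Step 2: Expose to compound for 48 hours at 5 concentrations. Step 3: Interpolate endpoints linearly; if unreached, use highest concentration. Here, GI50 denotes the concentration required for 50% inhibition of growth.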 Activity calls are given as the source filed them. Rule as the data show it: active = GI50 up to about 1.1 µM and inactive = higher.

Key:
Test in all cases: NCI-60 cell line screen, 48 h
Hs-578T = test system: Hs-578T
RXF 393 = test system: RXF 393
NCI-H226 = test system: NCI-H226
OVCAR-8 = test system: OVCAR-8
TK-10 = test system: TK-10
MCF7 = test system: MCF7
U-251 = test system: U-251
MOLT-4 = test system: MOLT-4
SK-MEL-5 = test system: SK-MEL-5
LOX IMVI = test system: LOX IMVI
MDA-N = test system: MDA-N
HOP-62 = test system: HOP-62
NCI-H23 = test system: NCI-H23
IGROV-1 = test system: IGROV-1
OVCAR-5 = test system: OVCAR-5
SN12C = test system: SN12C
ACHN = test system: ACHN
SF-268 = test system: SF-268
COLO 205 = test system: COLO 205
BT-549 = test system: BT-549

Measured: GI50

O=S1(=O)CCN(c2ccccc2CC(c2c[nH]c3ccccc23)c2c[nH]c3ccccc23)CC1
inactive: Hs-578T 7.71 µM | RXF 393 7.03 µM | NCI-H226 12.7 µM | OVCAR-8 8.55 µM | TK-10 5.32 µM | MCF7 3.66 µM | U-251 7.87 µM | MOLT-4 2.33 µM | SK-MEL-5 6.61 µM | LOX IMVI 3.57 µM | MDA-N 3.92 µM | HOP-62 13.6 µM | NCI-H23 6.67 µM | IGROV-1 6.93 µM | OVCAR-5 14.1 µM | SN12C 5.02 µM | ACHN 5.04 µM | SF-268 5.19 µM | COLO 205 3.03 µM | BT-549 11.9 µM

Cc1ccc(-n2cnc3c(N)nc(N)nc32)cc1
inactive: Hs-578T 42.7 µM | RXF 393 43.6 µM | NCI-H226 > 100 µM | OVCAR-8 > 100 µM | TK-10 65.6 µM | MCF7 66.5 µM | U-251 > 100 µM | MOLT-4 44.7 µM | SK-MEL-5 > 100 µM | LOX IMVI > 100 µM | MDA-N > 100 µM | HOP-62 > 100 µM | NCI-H23 > 100 µM | IGROV-1 > 100 µM | OVCAR-5 > 100 µM | SN12C > 100 µM | ACHN > 100 µM | SF-268 > 100 µM | COLO 205 > 100 µM | BT-549 > 100 µM

c1cc2n(n1)CCN2
inactive: Hs-578T > 1470 µM | RXF 393 1390 µM | NCI-H226 1960 µM | OVCAR-8 875 µM | TK-10 > 1490 µM | MCF7 828 µM | U-251 706 µM | MOLT-4 348 µM | SK-MEL-5 847 µM | LOX IMVI 662 µM | MDA-N 4680 µM | HOP-62 3720 µM | NCI-H23 1060 µM | IGROV-1 7380 µM | OVCAR-5 4300 µM | SN12C 1240 µM | ACHN 151 µM | SF-268 1550 µM | COLO 205 3680 µM | BT-549 4840 µM

O=P1(C(O)/C=C/c2ccccc2)N(Cc2ccccc2)[C@@H]2CCCC[C@H]2N1Cc1ccccc1 (stereo not given in full)
inactive: Hs-578T 3.65 µM | RXF 393 7.29 µM | NCI-H226 4.51 µM | OVCAR-8 3.74 µM | TK-10 7.23 µM | MCF7 3.24 µM | U-251 4.21 µM | MOLT-4 2.93 µM | SK-MEL-5 4.58 µM | LOX IMVI 3.8 µM | MDA-N 4.62 µM | HOP-62 11.1 µM | NCI-H23 4.26 µM | IGROV-1 3.41 µM | OVCAR-5 10.6 µM | SN12C 3.32 µM | ACHN 3.94 µM | SF-268 4.05 µM | COLO 205 2.42 µM | BT-549 15 µM
